Read-outs that look alike come from different tables or passages of the source.
Tests used:
rat hepatocytes = experiment: Inhibition of Gluconeogenesis in Rat Hepatocytes; assay type: cell-based; details: isolated rat hepatocytes, 10 mM lactate, 1 mM pyruvate, 1 hour, read-out: IC50 Glucose Production
Protocol: Hepatocytes (75 mg wet weight/ml) were incubated in 1 ml Krebs-bicarbonate buffer containing 10 mM Lactate, 1 mM pyruvate, 1 mg/ml BSA, and test compound concentrations from 1 to 500 μM. […] After 1 hour, an aliquot (0.25 ml) was removed, transferred to an Eppendorf tube and centrifuged. 50 μl of supernatant was then assayed for glucose content using a Sigma Glucose Oxidase kit as per the manufacturer's instructions.

rat liver FBPase = molecular target: T1, rat liver FBPase (Rattus norvegicus, UniProt P19112); experiment: Inhibition of Rat Liver FBPase; assay type: biochemical; details: read-out: IC50 (rlFBPase)
T1 construct: made in house; host or cells: E. coli BL21
T1 sequence (P19112 2-363 limits assumed): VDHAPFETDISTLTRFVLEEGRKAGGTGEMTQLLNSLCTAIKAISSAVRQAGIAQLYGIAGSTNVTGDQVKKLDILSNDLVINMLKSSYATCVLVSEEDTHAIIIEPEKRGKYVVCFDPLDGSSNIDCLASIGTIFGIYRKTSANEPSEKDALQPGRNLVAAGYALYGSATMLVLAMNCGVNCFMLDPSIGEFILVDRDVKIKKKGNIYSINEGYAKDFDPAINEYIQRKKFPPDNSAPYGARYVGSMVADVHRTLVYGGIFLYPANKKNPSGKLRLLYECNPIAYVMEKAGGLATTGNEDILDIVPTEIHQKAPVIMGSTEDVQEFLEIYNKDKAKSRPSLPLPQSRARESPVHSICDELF
Protocol: E. coli strain BL21 transformed with a human liver FBPase-encoding plasmid was obtained from Dr. M. R. El-Maghrabi at the State University of New York at Stony Brook. The enzyme was typically purified from 10 liters of recombinant E. coli culture as described (M. Gidh-Jain et al., 1994, The Journal of Biological Chemistry 269, pp 27732-27738). Enzymatic activity was measured spectrophotometrically in reactions that coupled the formation of product (fructose 6-phosphate) to the reduction of dimethylthiazoldiphenyltetrazolium bromide (MTT) via NADP^+ and phenazine methosulfate (PMS), using phosphoglucose isomerase and glucose 6-phosphate dehydrogenase as the coupling enzymes. Reaction mixtures (200 μl) were made up in 96-well microtitre plates, and consisted of 50 mM Tris-HCl, pH 7.4, 100 mM KCl, 5 mM EGTA, 2 mM MgCl2, 0.2 mM NADP, 1 mg/ml BSA, 1 mM MTT, 0.6 mM PMS, 1 unit/ml phosphoglucose isomerase, 2 units/ml glucose 6-phosphate dehydrogenase, and 0.150 mM substrate (fructose 1,6-bisphosphate). Inhibitor concentrations were varied from 0.01 μM to 10 μM. Reactions were started by the addition of 0.002 units of pure hlFBPase, and were monitored for 7 minutes at 590 nm in a Molecular Devices Plate Reader (37° C.).
E. coli strain BL21 transformed with a rat liver FBPase-encoding plasmid was obtained from Dr. M. R. El-Maghrabi at the State University of New York at Stony Brook. Recombinant FBPase was purified as described (El-Maghrabi, M. R., and Pilkis, S. J. (1991) BioChem. Biophys. Res. Commun. 176, 137-144) The enzyme assay was identical to that described above for human liver FBPase.

human liver FBPase = molecular target: T2, human liver FBPase (Homo sapiens, UniProt P09467); experiment: Inhibition of Human Liver FBPase; assay type: biochemical; details: read-out: IC50 (hlFBPase)
T2 construct: made in house; host or cells: E. coli BL21
T2 sequence (P09467 2-338 limits assumed): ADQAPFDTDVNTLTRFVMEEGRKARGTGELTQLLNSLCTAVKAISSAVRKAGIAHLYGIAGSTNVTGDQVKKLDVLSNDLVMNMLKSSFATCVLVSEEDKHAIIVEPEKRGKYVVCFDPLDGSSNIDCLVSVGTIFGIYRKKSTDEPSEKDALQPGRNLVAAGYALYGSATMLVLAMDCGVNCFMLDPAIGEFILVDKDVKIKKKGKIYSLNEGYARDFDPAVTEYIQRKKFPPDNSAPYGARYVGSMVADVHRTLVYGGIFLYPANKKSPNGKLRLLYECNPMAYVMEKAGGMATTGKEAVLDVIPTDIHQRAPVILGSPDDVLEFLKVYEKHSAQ
Protocol: […] […] Enzymatic activity was measured spectrophotometrically in reactions that coupled the formation of product (fructose 6-phosphate) to the reduction of dimethylthiazoldiphenyltetrazolium bromide (MTT) via NADP^+ and phenazine methosulfate (PMS), using phosphoglucose isomerase and glucose 6-phosphate dehydrogenase as the coupling enzymes. […] Inhibitor concentrations were varied from 0.01 μM to 10 μM. Reactions were started by the addition of 0.002 units of pure hlFBPase, and were monitored for 7 minutes at 590 nm in a Molecular Devices Plate Reader (37° C.).

[1] = test system: Zucker Diabetic Fatty (ZDF rat); experiment: Acute Oral Efficacy in the ZDF Rat; assay type: in vivo; details: for Blood Glucose, T6h: 6 h after 60 mg/kg oral; for Blood Glucose, % Change: baseline to 6 h, 60 mg/kg oral; for Blood Glucose, Tbaseline: baseline, 60 mg/kg oral group
Protocol: Methods: ZDF rats were purchased from Genetics Inc (Indianapolis, Ind.) at 8 weeks of age. Animals were maintained under standard vivarium conditions and provided with Purina 5008 chow and water ad libitum. At 10-12 weeks of age, rats with blood glucose levels>500 mg/dl were selected and dosed orally either with vehicle (PEG 400), or prodrug (60 mg/kg). Blood glucose levels were monitored at regular intervals for 6 hours following dosing. Blood samples were taken from tail vein nicks and analyzed by means of a HemoCue glucose analyzer (Hemocue, Mission Viejo, Calif.). Statistical analysis was performed using the Student's t test. Means±standard error of the means are shown.

[2] = test system: Human Liver Phosphoramidase; experiment: Structure Activity Relationship of Human Liver Phosphoramidase (human liver homogenate); assay type: in vitro ADME; details: pH 7.4
Protocol: Human liver, purchased from the Anatomic Gift Foundation (Laurel, Md.), was homogenized in Krebs-bicarbonate buffer and clarified by a slow-speed centrifugation. Prodrug metabolism was evaluated in reaction mixtures containing human liver homogenate (4 mgs protein), 50 mM Tris-HCl, pH 7.4, 10 mM MgCl2, and 10 mM dithiothreitol. At various time intervals over the course of 2 hours, aliquots were removed from the reaction mixtures and deproteinated by addition of methanol to 60%. Following clarification by centrifugation, metabolites were analyzed by reverse phase HPLC with use of a Beckman Ultrasphere ODS column (4.6×150 mm) equipped with an Alltech All-Guard column. The column was equilibrated with 20 mM potassium phosphate, pH 6.2 and eluted with a linear gradient of 0-60% acetonitrile over 20 minutes at a flow rate of 1.5 mL/min and at a temperature of 40° C. UV absorbance was monitored at 300 nm. Most of the prodrugs evaluated were metabolized via a non-rate limiting, esterase-catalyzed step to their monophosphoramidate form within 5 minutes of incubation. The rate of phosphonic acid appearance was therefore essentially a reflection of the rate of the final […] cleavage step. Results for representative prodrugs for which the esterase-catalyzed step was non-rate limiting are shown below: […]

Work on `Cc1nc(-c2ccc(P(=O)(O)O)o2)c(CC(C)C)s1` [Compound 3.2, 2-Methyl-5-isobutyl-4-[2-(5-phosphono)furanyl]thiazole] yielded an IC50 (rat hepatocytes; Hepatocyte) of 26000 nM and an IC50 (rat liver FBPase) of 2500 nM.

In the case of `CCCc1oc(N)nc1-c1ccc(P(=O)(O)O)o1` [Compound 10.2, 2-Amino-5-propyl-4-[2-(5-phosphono)furanyl]oxazole], the IC50 (rat hepatocytes; Hepatocyte) is reported as 16000 nM and the IC50 (rat liver FBPase) is reported as 2500 nM.

For `CCCc1cnc(N)nc1-c1ccc(P(=O)(O)O)o1` [Compound 16.1, 2-amino-5-propyl-4-[2-(5-phosphono)furanyl]pyrimidine], the IC50 (human liver FBPase) was 60 nM, the melting point was 258 to 259 °C and the IC50 (rat hepatocytes; Hepatocyte) was 10000 nM. It also gave an IC50 (rat liver FBPase) of 1800 nM.

For `CC(C)Cc1sc(N)nc1-c1ccc(P(=O)(N[C@@H](C)C(=O)OCc2ccccc2)N[C@@H](C)C(=O)OCc2ccccc2)o1` [Compound 50.2, 2-Amino-5-isobutyl-4-[2-(5-N,N-bis(L-alanine acid dibenzyl ester)phosphonoamido)furanyl]thiazole], the IC50 (rat hepatocytes) was 2100 nM, the “Blood Glucose, T6h” value [1] was 415 ± 15 mg/dL and the “Blood Glucose, % Change” value [1] was −30%. The “Blood Glucose, Tbaseline” value [1] was 591 ± 35 mg/dL.

With `CCOC(=O)CNP(=O)(NCC(=O)OCC)c1ccc(-c2nc(N)sc2CC(C)C)o1` [Compound 50.8] the “Phosphoramidase Activity (Rate of 3.1 or 3.58 production, nmoles/mn/mg liver protein)” value (“Phosphoramidase Activity” below) [2] was 0.019 nmoles/mn/mg liver protein.

For `CCOC(=O)C(C)(C)NP(=O)(NC(C)(C)C(=O)OCC)c1ccc(-c2nc(N)sc2CC(C)C)o1` [Compound 50.9], the IC50 (rat hepatocytes) was 2200 nM, the “Blood Glucose, T6h” value [1] was 410 ± 18 mg/dL and the “Blood Glucose, % Change” value [1] was −32%. For the same compound, the “Blood Glucose, Tbaseline” value [1] was 602 ± 26 mg/dL.

In the case of `CCOC(=O)CN(C)P(=O)(c1ccc(-c2nc(N)sc2CC(C)C)o1)N(C)CC(=O)OCC` [Compound 50.10, 2-Amino-5-isobutyl-4-{2-[5-(N,N′-bis(ethoxycarbonylmethyl)-N,N′-dimethylphosphonamido)]furanyl}thiazole], the “Phosphoramidase Activity” value [2] is reported as 0.005 nmoles/mn/mg liver protein.

In the case of `COC(=O)[C@H](CC(C)C)NP(=O)(N[C@@H](CC(C)C)C(=O)OC)c1ccc(-c2nc(N)sc2CC(C)C)o1` [Compound 50.12, 2-Amino-5-isobutyl-4-{2-[5-(N,N′-bis((S)-1-methoxycarbonyl-3-methyl)butyl)phosphonamido]furanyl}thiazole], the “Phosphoramidase Activity” value [2] is reported as 0.022 nmoles/mn/mg liver protein.

In the case of `CCOC(=O)[C@H](Cc1ccccc1)NP(=O)(N[C@@H](Cc1ccccc1)C(=O)OCC)c1ccc(-c2nc(N)sc2CC(C)C)o1` [Compound 50.19, 2-Amino-5-isobutyl-4-{2-[5-(N,N′-bis((S)-1-ethoxycarbonyl-2-phenyl)ethyl)phosphonamido]furanyl}thiazole], the “Phosphoramidase Activity” value [2] is reported as 0.029 nmoles/mn/mg liver protein.

With `CCCSc1sc(N)nc1-c1ccc(P(=O)(NC(C)C(=O)OC(C)C)NC(C)C(=O)OC(C)C)o1` (stereo not drawn) [Compound 50.20, 2-Amino-5-propylthio-4-{2-[5-(N,N′-(1-methyl-ethoxycarbonyl)ethyl)phosphonamido]furanyl}thiazole] the “Phosphoramidase Activity” value [2] was 0.085 nmoles/mn/mg liver protein.

For `CCCSc1sc(N)nc1-c1ccc(P(=O)(N[C@@H](COC(C)(C)C)C(=O)OC)N[C@@H](COC(C)(C)C)C(=O)OC)o1` [Compound 52.8, 2-Amino-5-propylthio-4-{2-[5-(N,N′-bis(S)-1-methoxycarbonyl-2-(t-butoxy)ethyl)phosphonamido]furanyl}thiazole], the “Phosphoramidase Activity” value [2] was 0.025 nmoles/mn/mg liver protein.

For `CCCSc1sc(N)nc1-c1ccc(P(=O)(NC2(C(=O)OCC)CCCC2)NC2(C(=O)OCC)CCCC2)o1` [Compound 52.12, 2-Amino-propylthio-4-[2-{5-(N,N′-bis(1-ethoxycarbonyl)cyclopentyl)phosphonamido}furanyl]thiazole], the “Phosphoramidase Activity” value [2] was 0.032 nmoles/mn/mg liver protein.

In the case of `CCCSc1sc(N)nc1-c1ccc(P(=O)(N[C@@H](CCC)C(=O)OCC)N[C@@H](CCC)C(=O)OCC)o1` [Compound 52.16], the “Phosphoramidase Activity” value [2] is reported as 0.033 nmoles/mn/mg liver protein.

From US6965033B2, “Bisamidate phosphonate prodrugs” (Metabasis Therapeutics, Inc., priority 1999, dated 2005)
